One data set addresses T1, PPARδ (Homo sapiens, UniProt Q03181).
T1 construct: PPARδ (aa 139 to 442); made in house; host or cells: E. coli BL21 (pLysS)
T1 sequence (Q03181 139-441 limits assumed): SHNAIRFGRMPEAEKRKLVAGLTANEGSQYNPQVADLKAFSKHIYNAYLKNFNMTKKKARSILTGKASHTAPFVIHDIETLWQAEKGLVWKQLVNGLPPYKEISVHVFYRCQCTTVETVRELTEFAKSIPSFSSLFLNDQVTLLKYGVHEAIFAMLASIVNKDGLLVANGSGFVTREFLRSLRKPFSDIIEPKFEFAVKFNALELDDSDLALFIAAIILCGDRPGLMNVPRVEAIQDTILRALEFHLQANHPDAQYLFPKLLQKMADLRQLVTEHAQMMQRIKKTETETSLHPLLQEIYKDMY
Nature of the data set: Radioligand binding assay (SPA), PPARδ receptor binding. To be noted: GST-PPARδ-LBD fusion protein. The source says:
(§1) Background information on the performed assays can be found in: Nichols J S et al. “Development of a scintillation proximity assay for peroxisome proliferator-activated receptor gamma ligand binding domain”, (1998) Anal. Biochem. 257: 112-119.
(§2) Full-length cDNA clones for humans PPARδ and PPARα and mouse PPARγ were obtained by RT-PCR from human adipose and mouse liver cRNA, respectively, cloned into plasmid vectors and verified by DNA sequencing. Bacterial and mammalian expression vectors were constructed to produce glutathione-s-transferase (GST) and Gal4 DNA binding domain proteins fused to the ligand binding domains (LBD) of PPARδ (aa 139 to 442), PPARγ (aa 174 to 476) and PPARα (aa 167 to 469). To accomplish this, the portions of the cloned sequences encoding the LBDs were amplified from the full-length clones by PCR and then subcloned into the plasmid vectors. Final clones were verified by DNA sequence analysis.
(§3) Induction, expression, and purification of GST-LBD fusion proteins were performed in E. coli strain BL21 (pLysS) cells by standard methods (Ref: Current Protocols in Molecular Biology, Wiley Press, edited by Ausubel et al.).
PPARδ receptor binding was assayed in HNM10 (50 mM Hepes, pH 7.4, 10 mM NaCl, 5 mM MgCl2, 0.15 mg/ml fatty acid-free BSA and 15 mM DTT). For each 96 well reaction a 500 ng equivalent of GST-PPARδ-LBD fusion protein and radioligand, e.g. 20000 dpm {2-methyl-4-[4-methyl-2-(4-trifluoromethyl-phenyl)-thiazol-5-yl-ditritiomethylsulfanyl]-phenoxy}-acetic acid, was bound to 10 μg SPA beads (PharmaciaAmersham) in a final volume of 50 μl by shaking. The resulting slurry was incubated for 1 h at RT and centrifuged for 2 min at 1300 g. The supernatant containing unbound protein was removed and the semidry pellet containing the receptor-coated beads was resuspended in 50 ul of HNM. Radioligand was added and the reaction incubated at RT for 1 h and scintillation proximity counting performed in the presence of test compounds was determined. All binding assays were performed in 96 well plates and the amount of bound ligand was measured on a Packard TopCount using OptiPlates (Packard). Dose response curves were done in triplicates within a range of concentration from 10^−10 M to 10^−4 M.

For a further data set, the target named is T2, PPARα (Homo sapiens, UniProt Q07869).
T2 construct: PPARα (aa 167 to 469); made in house; host or cells: E. coli BL21 (pLysS)
T2 sequence (Q07869 167-468 limits assumed): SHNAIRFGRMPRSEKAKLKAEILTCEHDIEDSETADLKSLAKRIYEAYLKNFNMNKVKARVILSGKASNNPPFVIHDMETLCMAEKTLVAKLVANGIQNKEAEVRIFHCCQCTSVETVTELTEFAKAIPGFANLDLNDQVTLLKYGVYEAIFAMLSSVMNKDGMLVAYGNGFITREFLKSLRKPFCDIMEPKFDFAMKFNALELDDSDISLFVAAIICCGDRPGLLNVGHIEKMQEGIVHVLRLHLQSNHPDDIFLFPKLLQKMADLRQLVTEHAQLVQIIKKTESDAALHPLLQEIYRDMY
Nature of the data set: Radioligand binding assay (SPA), PPARα receptor binding. The note with it: GST-PPARα-LBD fusion protein.
Description: as §1, §2, §3
(§4) PPARα receptor binding was assayed in TKE50 (50 mM Tris-HCl, pH 8, 50 mM KCl, 2 mM EDTA, 0.1 mg/ml fatty acid-free BSA and 10 mM DTT). For each 96 well reaction an 140 ng equivalent of GST-PPARα-LBD fusion protein was bound to 10 μg SPA beads (PharmaciaAmersham) in a final volume of 50 μl by shaking. The resulting slurry was incubated for 1 h at RT and centrifuged for 2 min at 1300 g. The supernatant containing unbound protein was removed and the semidry pellet containing the receptor-coated beads was resolved in 50 μl of TKE. For radioligand binding e.g. 10000 dpm of 2(S)-(2-benzoyl-phenylamino)-3-{4-[1,1-d]tritio-2-(5-methyl-2-phenyl-oxazol-4-yl)-ethoxy]-phenyl}-propionic acid or 2,3-ditritio-2(S)-methoxy-3-{4-[2-(5-methyl-2-phenyl-oxazol-4-yl)-ethoxy]-benzo[b]thiophen-7-yl}-propionic acid in 50 ul were added, the reaction incubated at RT for 1 h and scintillation proximity counting performed. All binding assays were performed in 96 well plates and the amount of bound ligand measured on a Packard TopCount using OptiPlates (Packard). Nonspecific binding was determined in the presence of 10^−4 M unlabelled compound. Dose response curves were done in triplicates within a range of concentration from 10^−10 M to 10^−4 M.

The target of the next data set is T3, PPARγ (Mus musculus, UniProt P37238).
T3 construct: PPARγ (aa 174 to 476); made in house; host or cells: E. coli BL21 (pLysS)
T3 sequence (P37238 204-505): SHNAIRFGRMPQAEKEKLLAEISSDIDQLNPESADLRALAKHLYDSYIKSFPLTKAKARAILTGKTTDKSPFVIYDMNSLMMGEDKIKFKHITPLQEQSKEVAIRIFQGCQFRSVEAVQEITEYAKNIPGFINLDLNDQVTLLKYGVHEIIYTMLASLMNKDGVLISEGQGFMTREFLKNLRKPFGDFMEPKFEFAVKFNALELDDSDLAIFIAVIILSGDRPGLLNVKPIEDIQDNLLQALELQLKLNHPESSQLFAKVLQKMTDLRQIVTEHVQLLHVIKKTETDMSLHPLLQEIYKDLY
Nature of the data set: Radioligand binding assay (SPA), PPARγ receptor binding. The note with it: GST-PPARγ-LBD fusion protein.
Description: as §1, §2, §3
as §4, with “PPARγ receptor” for “PPARα receptor”, “of GST-PPARγ-LBD” for “of GST-PPARα-LBD”, “50 ul” for “50 μl”, “dpm 2(S)-(2-benzoyl-phenylamino)-3-{4-[1,1-ditritio-2-(5-methyl-2-phenyl-oxazol-4-yl)-ethoxy]-phenyl}-propionic” for “dpm of 2(S)-(2-benzoyl-phenylamino)-3-{4-[1,1-d]tritio-2-(5-methyl-2-phenyl-oxazol-4-yl)-ethoxy]-phenyl}-propionic acid or 2,3-ditritio-2(S)-methoxy-3-{4-[2-(5-methyl-2-phenyl-oxazol-4-yl)-ethoxy]-benzo[b]thiophen-7-yl}-propionic”, “50 μl” for “50 ul”

Structures are written as SMILES.

The results in this text go back to US7345067B2, “Aniline derivatives, their manufacture and use as pharmaceutical agents” (Hoffmann-La Roche Inc., priority 2003, dated 2008).

For the compound `Cc1cc(N(C)Cc2sc(-c3ccc(C(F)(F)F)cc3)nc2C)ccc1OCC(=O)O` [Example 1.6, (2-Methyl-4-{methyl-[4-methyl-2-(4-trifluoromethyl-phenyl)-thiazol-5-ylmethyl]-amino}-phenoxy)-acetic acid], the melting point was 146 to 149 °C (dec.). The IC50 at PPARδ worked out at 0.0177 µM. In addition, the IC50 on PPARα was found to be 1.75 µM. On PPARγ, this compound yielded an IC50 of more than 10 µM.
Consider `Cc1nc(-c2ccc(C(F)(F)F)cc2)sc1CN(C)c1ccc(OCC(=O)O)c(Cl)c1` [Example 4.6, (2-Chloro-4-{methyl-[4-methyl-2-(4-trifluoromethyl-phenyl)-thiazol-5-ylmethyl]-amino}-phenoxy)-acetic acid], for which the melting point is 149 to 150 °C (dec.). On PPARδ, the 50% inhibitory concentration (IC50) was found to be 0.021 µM. This compound yielded an IC50 at PPARα of 0.412 µM. This compound registered an IC50 on PPARγ of more than 10 µM.
As to `Cc1nc(-c2ccc(C(F)(F)F)cc2)sc1CN(C)c1ccc(OCC(=O)O)c(F)c1` [Example 5.7, (2-Fluoro-4-{methyl-[4-methyl-2-(4-trifluoromethyl-phenyl)-thiazol-5-ylmethyl]-amino}-phenoxy)-acetic acid], the melting point was in the range of 113 to 114 °C. Besides, on PPARδ, the IC50 amounted to 0.0498 µM. Also, on PPARα, the IC50 was 1.06 µM. On PPARγ, the IC50 is more than 10 µM.
`Cc1nc(-c2ccc(C(F)(F)F)cc2)sc1CN(C)c1ccc(OCC(=O)O)c(C(F)(F)F)c1` [Example 6.8, (4-{Methyl-[4-methyl-2-(4-trifluoromethyl-phenyl)-thiazol-5-ylmethyl]-amino}-2-trifluoromethyl-phenoxy)-acetic acid] came in with a melting point of 180 to 181 °C. This compound yielded an IC50 on PPARδ of 0.0162 µM. Moreover, the IC50 at PPARα turned out to be 0.463 µM. At PPARγ, this compound returned a concentration for half-maximal inhibition (IC50) of more than 10 µM.
Turning to `CCc1cc(N(C)Cc2sc(-c3ccc(C(F)(F)F)cc3)nc2C)ccc1OCC(=O)O` [Example 7.8, (2-Ethyl-4-{methyl-[4-methyl-2-(4-trifluoromethyl-phenyl)-thiazol-5-ylmethyl]-amino}-phenoxy)-acetic acid], the melting point is 142 to 143 °C (dec.). Also, the IC50 on PPARδ was determined as 0.0101 µM. At PPARα, this compound registered an IC50 of 0.308 µM. On PPARγ, this compound came in with an IC50 of 2.21 µM.
On to `COc1cc(N(C)Cc2sc(-c3ccc(C(F)(F)F)cc3)nc2C)ccc1OCC(=O)O` [Example 8.7, (2-Methoxy-4-{methyl-[4-methyl-2-(4-trifluoromethyl-phenyl)-thiazol-5-ylmethyl]-amino}-phenoxy)-acetic acid], for which the melting point was 129 to 131 °C (dec.).
Compound `COCCCc1cc(N(C)Cc2sc(-c3ccc(C(F)(F)F)cc3)nc2C)ccc1OCC(=O)O` [Example 13.10, (2-(3-Methoxy-propyl)-4-{methyl-[4-methyl-2-(4-trifluoromethyl-phenyl)-thiazol-5-ylmethyl]-amino}-phenoxy)-acetic acid] had a melting point of 142 to 143 °C. On PPARδ, this compound came in with an IC50 of 0.034 µM. At PPARα, this compound registered an IC50 of 3.96 µM. Also, the IC50 at PPARγ was more than 10 µM.
`Cc1cc(N(C)Cc2oc(-c3ccc(C(F)(F)F)cc3)nc2C)ccc1OCC(=O)O` [Example 14, (2-Methyl-4-{methyl-[4-methyl-2-(4-trifluoromethyl-phenyl)-oxazol-5-ylmethyl]-amino}-phenoxy)-acetic acid] returned a melting point of 156 to 157 °C.
On to `CCN(Cc1sc(-c2ccc(C(F)(F)F)cc2)nc1C)c1cc(C)c(OCC(=O)O)c(C)c1` [Example 15.5, (4-{Ethyl-[4-methyl-2-(4-trifluoromethyl-phenyl)-thiazol-5-ylmethyl]-amino}-2,6-dimethyl-phenoxy)-acetic acid], for which the melting point was in the range of 161 to 162 °C.
On the same count and under the same terms, next, `Cc1cc(N(C)Cc2oc(-c3ccc(C(F)(F)F)cc3)nc2C)cc(C)c1OCC(=O)O` [Example 16.4, (2,6-Dimethyl-4-{methyl-[4-methyl-2-(4-trifluoromethyl-phenyl)-oxazol-5-ylmethyl]-amino}-phenoxy)-acetic acid]: 122 to 123 °C; `Cc1cc(NCc2sc(-c3ccc(C(F)(F)F)cc3)nc2C)ccc1OCC(=O)O` [Example 18.3, (2-Methyl-4-{[4-methyl-2-(4-trifluoromethyl-phenyl)-thiazol-5-ylmethyl]-amino}-phenoxy)-acetic acid]: 201 to 203 °C (dec.).
The same measure, in the same setting: with `CCN(Cc1sc(-c2ccc(C(F)(F)F)cc2)nc1C)c1ccc(OCC(=O)O)c(C)c1` [Example 19.2, (4-{Ethyl-[4-methyl-2-(4-trifluoromethyl-phenyl)-thiazol-5-ylmethyl]-amino}-2-methyl-phenoxy)-acetic acid] the figure was 147 to 154 °C (dec.).
Still for that read-out and setting: with `Cc1nc(-c2ccc(C(F)(F)F)cc2)sc1CN(C)c1ccc(OCC(=O)O)c(I)c1` [Example 20.8, (2-Iodo-4-{methyl-[4-methyl-2-(4-trifluoromethyl-phenyl)-thiazol-5-ylmethyl]-amino}-phenoxy)-acetic acid] the figure was 172.5 to 173 °C.
